# Measured values reported in ChEMBL document CHEMBL6103630, “Discovery of Novel 2,4,5-Trisubstituted Pyrimidine Derivatives as Potent and Selective FGFR Inhibitors against Gatekeeper Mutants for the Treatment of NSCLC” (J Med Chem, 2025).
# Calls of active or inactive are those of the source. The rule behind the calls is not given here.
# Key:
# [1] = Toxicity in ICR mouse assessed as change in kidney weight at 80 mg/kg, po measured after 7 days; assay type: organism-based; conditions: in vivo, 168 h, time 7 day
# [2] = Toxicity in BALB/c nude mouse xenografted with human NCI-H1581 cells assessed as change in ALT level at 60 mg/kg; assay type: organism-based; conditions: in vivo
# [3] = biological target: Platelet-derived growth factor receptor alpha (Homo sapiens) (UniProt P16234); assay: Inhibition of PDGFRalpha (unknown origin)
# A549 [4] = assay: Inhibition of AKT (unknown origin) phosphorylation in human A549 cells at 250 to 1000 nM by Western blotting analysis; assay type: cell-based; conditions: dose 250-1000 nM
# [5] = Toxicity in BALB/c nude mouse xenografted with rat L6 cells harboring FGFR V561M mutant assessed as change in body weight at 30 to 60 mg/kg and measured daily; assay type: organism-based; conditions: in vivo, dose 30-60 mg/kg
# [6] = Oral bioavailability in male Sprague-Dawley rat at 2 mg/kg, iv by UHPLC-MS/MS analysis; assay type: ADME, organism-based; conditions: in vivo
# [7] = biological target: Vascular endothelial growth factor receptor 2 (Homo sapiens) (UniProt P35968); assay: Inhibition of VEGFR2 (unknown origin)
# [8] = Toxicity in BALB/c nude mouse xenografted with rat L6 cells harboring FGFR V561M mutant assessed as change in spleen weight at 30 to 60 mg/kg and measured daily for 14 days; assay type: organism-based; conditions: in vivo, 336 h, dose 30-60 mg/kg, time 14 day
# [9] = Toxicity in BALB/c nude mouse xenografted with rat L6 cells harboring FGFR V561M mutant assessed as change in liver weight at 30 to 60 mg/kg and measured daily for 14 days; assay type: organism-based; conditions: in vivo, 336 h, dose 30-60 mg/kg, time 14 day
# [10] = Toxicity in ICR mouse assessed as change in spleen weight at 80 mg/kg, po measured after 7 days; assay type: organism-based; conditions: in vivo, 168 h, time 7 day
# [11] = Toxicity in BALB/c nude mouse xenografted with human NCI-H1581 cells assessed as change in heart weight and measured after 14 days; assay type: tissue-based; conditions: 336 h, time 14 day
# NCI-H1581 [12] = assay: Antitumor activity against human NCI-H1581 cells xenografted in BALB/c nude mouse assessed as tumor growth inhibition at 60 mg/kg relative to control; assay type: functional; conditions: read-out: TGI
# [13] = biological target: Epidermal growth factor receptor (Homo sapiens) (UniProt P00533); assay: Inhibition of EGFR (unknown origin)
# [14] = biological target: Fibroblast growth factor receptor 2 (Homo sapiens, UniProt P21802, V564F)
# NCI-H1581 [15] = assay: Inhibition of DNA replication in human NCI-H1581 cells incubated for 1 hrs by EdU staining based analysis; assay type: functional, cell-based; conditions: dose 100.0 µM
# A549 [16] = assay: Inhibition of colony formation in human A549 cells at 0.25 to 1.0 uM incubated for 48 hrs by crystal violet staining based assay; assay type: functional, cell-based; conditions: dose 0.25-1 µM
# [17] = biological target: Platelet-derived growth factor receptor beta (Homo sapiens) (UniProt P09619); assay: Inhibition of PDGFRbeta (unknown origin)
# NCI-H1581 [18] = assay: Inhibition of AKT (unknown origin) phosphorylation in human NCI-H1581 cells at 10 to 40 nM by Western blotting analysis; assay type: cell-based; conditions: dose 10-40 nM
# NCI-H1581 [19] = assay: Inhibition of cell migration in human NCI-H1581 cells at 10 to 40 nM incubated for 48 hrs by crystal violet staining based transwell assay; assay type: functional; conditions: dose 10-40 nM
# NCI-H1581 [20] = assay: cells; conditions: Homo sapiens, NCI-H1581, 48 h
# Description: Antiproliferative activity against human NCI-H1581 cells assessed as inhibition of cell proliferation incubated for 48 hrs by MTT assay
# [21] = biological target: Fibroblast growth factor receptor 4 (Homo sapiens, UniProt P22455); assay: Inhibition of wild type FGFR4 (unknown origin) by caliper mobility shift assay
# [22] = Toxicity in ICR mouse assessed as histopathological changes in liver at 80 mg/kg, po by H and E staining based analysis; assay type: organism-based; conditions: in vivo
# [23] = Antitumor activity against rat L6 cells harboring FGFR V561M mutant xenografted in BALB/c nude mouse assessed as tumor growth inhibition at 30 mg/kg relative to control; assay type: functional; conditions: read-out: TGI
# NCI-H1581 [24] = assay: Inhibition of cell adhesion in human NCI-H1581 cells by crystal violet staining based analysis; assay type: functional; conditions: dose 10-40 nM
# [25] = Toxicity in ICR mouse assessed as change in liver weight at 80 mg/kg, po measured after 7 days; assay type: organism-based; conditions: in vivo, 168 h, time 7 day
# Mus musculus [26] = assay: In vivo inhibition of ERK phosphorylation in BALB/c nude mouse xenografted with rat L6 cells harboring FGFR1 V561M mutant assessed as suppression of ERK level in tumor at 60 mg/kg by Western blotting analysis; assay type: functional, organism-based
# Mus musculus [27] = assay: In vivo inhibition of AKT phosphorylation in BALB/c nude mouse xenografted with rat L6 cells harboring FGFR1 V561M mutant assessed as suppression of AKT level in tumor at 60 mg/kg by Western blotting analysis; assay type: functional, organism-based
# [28] = Toxicity in BALB/c nude mouse xenografted with human NCI-H1581 cells assessed as change in liver weight and measured after 14 days; conditions: 336 h, time 14 day
# [29] = biological target: Fibroblast growth factor receptor 3 (Homo sapiens, UniProt P22607); assay: Binding affinity to FGFR3 (unknown origin) at 0.1 uM
# [30] = Toxicity in BALB/c nude mouse xenografted with rat L6 cells harboring FGFR V561M mutant assessed as change in heart weight at 30 to 60 mg/kg and measured daily for 14 days; assay type: organism-based; conditions: in vivo, 336 h, dose 30-60 mg/kg, time 14 day
# [31] = Cmax in male Sprague-Dawley rat at 10 mg/kg, po by UHPLC-MS/MS analysis; assay type: ADME, organism-based; conditions: in vivo
# [32] = Toxicity in BALB/c nude mouse xenografted with rat L6 cells harboring FGFR V561M mutant assessed as change in lung weight at 30 to 60 mg/kg and measured daily for 14 days; assay type: organism-based; conditions: in vivo, 336 h, dose 30-60 mg/kg, time 14 day
# Mus musculus [33] = assay: In vivo inhibition of FGFR1 signaling pathway in BALB/c nude mouse xenografted with human NCI-H1581 cells assessed as reduction in FGFR1 phosphorylation level in tumor by Western blotting analysis; assay type: functional, organism-based
# NCI-H1581 [34] = assay: Antitumor activity against human NCI-H1581 cells xenografted in BALB/c nude mouse assessed as induction of apoptosis in tumor by H and E staining based analysis; assay type: functional, cell-based
# Sequence of Platelet-derived growth factor receptor alpha (Homo sapiens) (P16234 whole entry): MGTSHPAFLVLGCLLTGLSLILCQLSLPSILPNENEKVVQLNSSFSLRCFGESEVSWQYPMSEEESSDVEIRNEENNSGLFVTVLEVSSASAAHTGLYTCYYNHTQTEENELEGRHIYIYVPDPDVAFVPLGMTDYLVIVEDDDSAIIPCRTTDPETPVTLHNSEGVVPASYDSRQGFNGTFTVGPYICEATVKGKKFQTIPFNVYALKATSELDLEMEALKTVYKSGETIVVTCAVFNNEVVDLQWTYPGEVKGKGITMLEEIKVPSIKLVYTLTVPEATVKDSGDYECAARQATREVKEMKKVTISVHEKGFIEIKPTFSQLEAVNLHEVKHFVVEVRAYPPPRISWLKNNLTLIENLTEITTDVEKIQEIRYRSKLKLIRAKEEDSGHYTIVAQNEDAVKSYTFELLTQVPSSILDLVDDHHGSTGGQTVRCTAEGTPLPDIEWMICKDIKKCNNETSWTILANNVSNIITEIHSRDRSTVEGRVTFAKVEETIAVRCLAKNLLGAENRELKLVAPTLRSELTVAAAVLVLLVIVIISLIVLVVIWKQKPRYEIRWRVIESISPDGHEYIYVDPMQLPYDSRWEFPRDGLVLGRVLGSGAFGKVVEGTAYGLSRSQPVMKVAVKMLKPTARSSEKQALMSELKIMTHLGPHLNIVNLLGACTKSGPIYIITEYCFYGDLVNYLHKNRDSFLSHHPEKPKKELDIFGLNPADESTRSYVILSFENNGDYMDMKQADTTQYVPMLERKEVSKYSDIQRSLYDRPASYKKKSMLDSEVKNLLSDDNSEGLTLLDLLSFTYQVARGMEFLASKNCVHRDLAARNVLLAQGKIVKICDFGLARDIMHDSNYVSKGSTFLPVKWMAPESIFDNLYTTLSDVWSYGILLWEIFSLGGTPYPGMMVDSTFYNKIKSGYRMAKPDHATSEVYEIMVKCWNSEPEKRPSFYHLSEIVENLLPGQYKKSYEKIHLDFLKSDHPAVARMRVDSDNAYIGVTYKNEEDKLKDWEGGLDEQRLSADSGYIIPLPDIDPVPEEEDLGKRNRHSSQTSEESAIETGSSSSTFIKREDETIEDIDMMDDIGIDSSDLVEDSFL
# Sequence of Fibroblast growth factor receptor 2 (P21802 22-821 V564F limits assumed): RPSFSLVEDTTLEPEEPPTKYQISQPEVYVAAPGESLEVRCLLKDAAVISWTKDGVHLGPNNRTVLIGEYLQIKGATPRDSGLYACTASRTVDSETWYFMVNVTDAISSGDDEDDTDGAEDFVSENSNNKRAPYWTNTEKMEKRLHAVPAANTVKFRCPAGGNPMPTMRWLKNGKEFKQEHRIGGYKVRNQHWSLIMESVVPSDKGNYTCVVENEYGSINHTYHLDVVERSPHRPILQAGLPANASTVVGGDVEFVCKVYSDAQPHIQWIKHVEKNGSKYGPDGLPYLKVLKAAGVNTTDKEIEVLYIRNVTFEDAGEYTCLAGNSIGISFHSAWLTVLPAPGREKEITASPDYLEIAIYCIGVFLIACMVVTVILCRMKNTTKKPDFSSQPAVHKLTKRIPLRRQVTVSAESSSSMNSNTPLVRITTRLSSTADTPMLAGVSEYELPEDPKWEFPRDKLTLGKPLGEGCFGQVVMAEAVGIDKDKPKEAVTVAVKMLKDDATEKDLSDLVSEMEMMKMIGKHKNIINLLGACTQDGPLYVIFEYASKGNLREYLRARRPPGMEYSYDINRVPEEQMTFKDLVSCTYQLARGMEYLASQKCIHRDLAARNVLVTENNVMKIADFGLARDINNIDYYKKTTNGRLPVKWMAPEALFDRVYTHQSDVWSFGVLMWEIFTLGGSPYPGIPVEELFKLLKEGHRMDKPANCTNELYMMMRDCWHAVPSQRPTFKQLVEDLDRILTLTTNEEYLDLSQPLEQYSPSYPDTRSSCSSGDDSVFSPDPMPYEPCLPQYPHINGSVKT
# Sequence of Platelet-derived growth factor receptor beta (Homo sapiens) (P09619 whole entry): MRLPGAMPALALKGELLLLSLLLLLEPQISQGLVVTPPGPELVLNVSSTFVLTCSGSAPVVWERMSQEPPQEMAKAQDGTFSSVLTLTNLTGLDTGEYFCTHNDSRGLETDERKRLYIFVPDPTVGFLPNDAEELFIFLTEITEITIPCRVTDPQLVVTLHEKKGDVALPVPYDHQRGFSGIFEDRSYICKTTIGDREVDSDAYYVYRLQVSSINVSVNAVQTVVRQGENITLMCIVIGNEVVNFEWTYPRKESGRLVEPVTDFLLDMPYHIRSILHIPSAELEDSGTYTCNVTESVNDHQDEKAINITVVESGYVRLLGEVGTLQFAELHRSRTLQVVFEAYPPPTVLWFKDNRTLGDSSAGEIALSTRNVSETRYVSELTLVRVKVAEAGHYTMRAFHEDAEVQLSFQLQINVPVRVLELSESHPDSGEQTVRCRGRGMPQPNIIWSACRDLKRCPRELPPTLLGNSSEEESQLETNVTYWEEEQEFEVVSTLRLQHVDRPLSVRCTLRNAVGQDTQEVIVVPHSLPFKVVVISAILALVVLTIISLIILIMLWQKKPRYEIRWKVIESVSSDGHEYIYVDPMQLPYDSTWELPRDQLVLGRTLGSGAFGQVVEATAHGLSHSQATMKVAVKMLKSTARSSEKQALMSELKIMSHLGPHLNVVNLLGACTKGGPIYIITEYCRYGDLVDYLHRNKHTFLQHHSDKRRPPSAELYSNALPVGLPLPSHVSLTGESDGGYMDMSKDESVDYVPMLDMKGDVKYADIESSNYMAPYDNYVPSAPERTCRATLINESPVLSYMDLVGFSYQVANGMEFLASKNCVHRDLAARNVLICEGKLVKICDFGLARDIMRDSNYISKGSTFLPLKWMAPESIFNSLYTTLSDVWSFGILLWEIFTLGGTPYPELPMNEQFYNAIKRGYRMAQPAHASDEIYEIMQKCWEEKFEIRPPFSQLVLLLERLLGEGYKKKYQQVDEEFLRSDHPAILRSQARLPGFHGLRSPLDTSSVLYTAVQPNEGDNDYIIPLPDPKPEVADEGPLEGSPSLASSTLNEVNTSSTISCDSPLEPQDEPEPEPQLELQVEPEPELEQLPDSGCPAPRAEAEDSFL
# Sequence of Fibroblast growth factor receptor 4 (P22455 whole entry): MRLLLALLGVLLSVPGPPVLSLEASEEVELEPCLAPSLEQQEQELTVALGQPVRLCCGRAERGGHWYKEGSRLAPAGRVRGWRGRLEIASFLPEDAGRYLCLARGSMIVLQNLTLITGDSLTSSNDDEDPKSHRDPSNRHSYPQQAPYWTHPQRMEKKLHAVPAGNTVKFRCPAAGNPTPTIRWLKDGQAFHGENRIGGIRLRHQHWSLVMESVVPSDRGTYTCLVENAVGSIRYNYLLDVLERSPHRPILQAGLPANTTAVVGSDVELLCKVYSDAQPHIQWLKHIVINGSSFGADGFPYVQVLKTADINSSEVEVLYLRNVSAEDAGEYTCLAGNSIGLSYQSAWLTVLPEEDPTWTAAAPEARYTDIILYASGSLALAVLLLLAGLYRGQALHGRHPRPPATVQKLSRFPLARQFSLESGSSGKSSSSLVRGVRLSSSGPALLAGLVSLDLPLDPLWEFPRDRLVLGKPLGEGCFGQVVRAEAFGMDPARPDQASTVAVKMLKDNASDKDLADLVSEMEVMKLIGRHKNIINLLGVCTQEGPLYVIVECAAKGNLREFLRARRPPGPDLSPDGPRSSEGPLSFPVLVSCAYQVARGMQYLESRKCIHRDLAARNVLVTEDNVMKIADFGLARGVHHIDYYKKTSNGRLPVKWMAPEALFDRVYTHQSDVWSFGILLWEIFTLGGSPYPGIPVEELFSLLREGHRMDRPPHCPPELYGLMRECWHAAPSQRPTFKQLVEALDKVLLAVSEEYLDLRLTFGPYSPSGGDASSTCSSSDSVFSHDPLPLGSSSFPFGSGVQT
# Sequence of Fibroblast growth factor receptor 3 (P22607 23-806 limits assumed): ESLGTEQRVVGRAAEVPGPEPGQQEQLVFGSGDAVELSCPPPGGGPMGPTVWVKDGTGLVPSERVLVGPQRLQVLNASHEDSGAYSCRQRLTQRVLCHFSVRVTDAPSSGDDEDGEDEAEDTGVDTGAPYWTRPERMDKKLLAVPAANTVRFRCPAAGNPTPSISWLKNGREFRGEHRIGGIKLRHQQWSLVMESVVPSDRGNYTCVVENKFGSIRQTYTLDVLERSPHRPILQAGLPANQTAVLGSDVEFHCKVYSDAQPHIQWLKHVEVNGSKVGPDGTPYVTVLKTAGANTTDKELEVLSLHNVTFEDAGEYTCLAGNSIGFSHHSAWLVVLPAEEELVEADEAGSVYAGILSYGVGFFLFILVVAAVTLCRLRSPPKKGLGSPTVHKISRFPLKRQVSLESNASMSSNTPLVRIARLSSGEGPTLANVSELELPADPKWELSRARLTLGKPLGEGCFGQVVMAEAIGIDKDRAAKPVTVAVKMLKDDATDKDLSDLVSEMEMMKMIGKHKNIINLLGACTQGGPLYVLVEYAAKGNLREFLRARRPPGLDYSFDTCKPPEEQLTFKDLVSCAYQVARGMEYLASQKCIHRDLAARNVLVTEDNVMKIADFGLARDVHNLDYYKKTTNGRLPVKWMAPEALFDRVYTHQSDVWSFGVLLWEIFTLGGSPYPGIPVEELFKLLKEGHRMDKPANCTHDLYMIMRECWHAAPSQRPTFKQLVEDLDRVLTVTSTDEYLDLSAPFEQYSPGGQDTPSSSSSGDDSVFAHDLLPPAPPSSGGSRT
smiles,measurement,setting,value
C=CC(=O)Nc1ccc(Nc2nc(Nc3ccc(N4C[C@@H](C)N[C@@H](C)C4)c(OC)c3)ncc2Cl)cc1Cl,Activity,[1],Non-toxic
same,Activity,[2],Non-toxic
same,inhibition,[3],Not active; Moderate To Weak Inhibitory Activity Observed
same,inhibition,A549 [4],Dose-dependent-effect
same,Activity,[5],Non-toxic
same,bioavailability,[6],47.7%
same,inhibition,[7],Not active; Moderate To Weak Inhibitory Activity Observed
same,Activity,[8],Non-toxic
same,Activity,[9],Non-toxic
same,Activity,[10],Non-toxic
same,Activity,[11],Non-toxic
same,inhibition in vivo at 60 mg/kg,NCI-H1581 [12],61%
same,inhibition,[13],Not active; Moderate To Weak Inhibitory Activity Observed
same,IC50,[14],1.5 nM
same,inhibition,NCI-H1581 [15],Dose-dependent-effect
same,inhibition,A549 [16],Active
same,inhibition,[17],Not active; Moderate To Weak Inhibitory Activity Observed
same,inhibition,NCI-H1581 [18],Active
same,inhibition,NCI-H1581 [19],Active
same,IC50,NCI-H1581 [20],18 nM
same,IC50,[21],486 nM
same,Activity,[22],Non-toxic
same,inhibition in vivo at 30 mg/kg,[23],48%
same,inhibition,NCI-H1581 [24],Dose-dependent-effect
same,Activity,[25],Non-toxic
same,inhibition,Mus musculus [26],Active
same,inhibition,Mus musculus [27],Active
same,Activity,[28],Non-toxic
same,Activity,[29],Not active; Reduced Affinities Observed
same,Activity,[30],Non-toxic
same,Cmax,[31],2250 ng/mL
same,Activity,[32],Non-toxic
same,inhibition,Mus musculus [33],Active
same,Activity,NCI-H1581 [34],Active
